Laboratory results from ChEMBL document CHEMBL3044826, “Design, synthesis and biological evaluation of some novel substituted 2-mercapto-3-phenethylquinazolines as antitumor agents” (2013).

Legend:
Format in all cases: functional
SNB-75 = experiment: Cytotoxicity against Homo sapiens (human) SNB75 cells assessed as growth inhibition at 10 uM after 48 hr by coulter counter analysis; details: SNB-75, 48 h, read-out: GI
SK-MEL-28 = experiment: Cytotoxicity against Homo sapiens (human) SK-MEL-28 cells assessed as growth inhibition at 10 uM after 48 hr by coulter counter analysis; details: SK-MEL-28, 48 h, read-out: GI
BT-549 = experiment: Cytotoxicity against Homo sapiens (human) BT549 cells assessed as growth inhibition at 10 uM after 48 hr by coulter counter analysis; details: BT-549, 48 h, read-out: GI
SK-OV-3 = experiment: Cytotoxicity against Homo sapiens (human) SKOV3 cells assessed as growth inhibition at 10 uM after 48 hr by coulter counter analysis; details: SK-OV-3, 48 h, read-out: GI
PC-3 = experiment: Cytotoxicity against Homo sapiens (human) PC3 cells assessed as growth inhibition at 10 uM after 48 hr by coulter counter analysis; details: PC-3, 48 h, read-out: GI
IGROV-1 = experiment: Cytotoxicity against Homo sapiens (human) IGROV1 cells assessed as growth inhibition at 10 uM after 48 hr by coulter counter analysis; details: IGROV-1, 48 h, read-out: GI
SN12C = experiment: Cytotoxicity against Homo sapiens (human) SN12C cells assessed as growth inhibition at 10 uM after 48 hr by coulter counter analysis; details: read-out: GI
SF-539 = experiment: Cytotoxicity against Homo sapiens (human) SF539 cells assessed as growth inhibition at 10 uM after 48 hr by coulter counter analysis; details: SF-539, 48 h, read-out: GI
TK-10 = experiment: Cytotoxicity against Homo sapiens (human) TK10 cells assessed as growth inhibition at 10 uM after 48 hr by coulter counter analysis; details: TK-10, 48 h, read-out: GI
COLO 205 = experiment: Cytotoxicity against Homo sapiens (human) COLO205 cells assessed as growth inhibition at 10 uM after 48 hr by coulter counter analysis; details: COLO 205, 48 h, read-out: GI
CAKI-1 = experiment: Cytotoxicity against Homo sapiens (human) Caki1 cells assessed as growth inhibition at 10 uM after 48 hr by coulter counter analysis; details: CAKI-1, 48 h, read-out: GI
HOP-62 = experiment: Cytotoxicity against Homo sapiens (human) HOP62 cells assessed as growth inhibition at 10 uM after 48 hr by coulter counter analysis; details: HOP-62, 48 h, read-out: GI
SF-268 = experiment: Cytotoxicity against Homo sapiens (human) SF268 cells assessed as growth inhibition at 10 uM after 48 hr by coulter counter analysis; details: SF-268, 48 h, read-out: GI
SK-MEL-5 = experiment: Cytotoxicity against Homo sapiens (human) SK-MEL-5 cells assessed as growth inhibition at 10 uM after 48 hr by coulter counter analysis; details: SK-MEL-5, 48 h, read-out: GI
UO-31 = experiment: Cytotoxicity against Homo sapiens (human) UO31 cells assessed as growth inhibition at 10 uM after 48 hr by coulter counter analysis; details: UO-31, 48 h, read-out: GI
OVCAR-3 = experiment: Cytotoxicity against Homo sapiens (human) OVCAR3 cells assessed as growth inhibition at 10 uM after 48 hr by coulter counter analysis; details: OVCAR-3, 48 h, read-out: GI
UACC-62 = experiment: Cytotoxicity against Homo sapiens (human) UACC62 cells assessed as growth inhibition at 10 uM after 48 hr by coulter counter analysis; details: UACC-62, 48 h, read-out: GI
A498 = experiment: Cytotoxicity against Homo sapiens (human) A498 cells assessed as growth inhibition at 10 uM after 48 hr by coulter counter analysis; details: A498, 48 h, read-out: GI
DU-145 = experiment: Cytotoxicity against Homo sapiens (human) DU145 cells assessed as growth inhibition at 10 uM after 48 hr by coulter counter analysis; details: DU-145, 48 h, read-out: GI
SW-620 = experiment: Cytotoxicity against Homo sapiens (human) SW620 cells assessed as growth inhibition at 10 uM after 48 hr by coulter counter analysis; details: SW-620, 48 h, read-out: GI
SNB-19 = experiment: Cytotoxicity against Homo sapiens (human) SNB19 cells assessed as growth inhibition at 10 uM after 48 hr by coulter counter analysis; details: SNB-19, 48 h, read-out: GI
ACHN = experiment: Cytotoxicity against Homo sapiens (human) ACHN cells assessed as growth inhibition at 10 uM after 48 hr by coulter counter analysis; details: read-out: GI
A549 = experiment: Cytotoxicity against Homo sapiens (human) A549 cells assessed as growth inhibition at 10 uM after 48 hr by coulter counter analysis; details: A549, 48 h, read-out: GI
HCT-116 = experiment: Cytotoxicity against Homo sapiens (human) HCT116 cells assessed as growth inhibition at 10 uM after 48 hr by coulter counter analysis; details: HCT-116, 48 h, read-out: GI
MDA-MB-468 = experiment: Cytotoxicity against Homo sapiens (human) MDA-MB-468 cells assessed as growth inhibition at 10 uM after 48 hr by coulter counter analysis; details: MDA-MB-468, 48 h, read-out: GI
RXF 393 = experiment: Cytotoxicity against Homo sapiens (human) RXF393 cells assessed as growth inhibition at 10 uM after 48 hr by coulter counter analysis; details: RXF 393, 48 h, read-out: GI
MDA-MB-231 = experiment: Cytotoxicity against Homo sapiens (human) MDA-MB-231 cells assessed as growth inhibition at 10 uM after 48 hr by coulter counter analysis; details: MDA-MB-231, 48 h, read-out: GI
NCI-H322M = experiment: Cytotoxicity against Homo sapiens (human) NCI-H322M cells assessed as growth inhibition at 10 uM after 48 hr by coulter counter analysis; details: read-out: GI
HCT-15 = experiment: Cytotoxicity against Homo sapiens (human) HCT15 cells assessed as growth inhibition at 10 uM after 48 hr by coulter counter analysis; details: HCT-15, 48 h, read-out: GI
SF-295 = experiment: Cytotoxicity against Homo sapiens (human) SF295 cells assessed as growth inhibition at 10 uM after 48 hr by coulter counter analysis; details: SF-295, 48 h, read-out: GI
MDA-MB-435 = experiment: Cytotoxicity against Homo sapiens (human) MDA-MB-435 cells assessed as growth inhibition at 10 uM after 48 hr by coulter counter analysis; details: MDA-MB-435, 48 h, read-out: GI
HT-29 = experiment: Cytotoxicity against Homo sapiens (human) HT-29 cells assessed as growth inhibition at 10 uM after 48 hr by coulter counter analysis; details: HT-29, 48 h, read-out: GI
LOX IMVI = experiment: Cytotoxicity against Homo sapiens (human) LOXIMVI cells assessed as growth inhibition at 10 uM after 48 hr by coulter counter analysis; details: read-out: GI
MCF7 = experiment: Cytotoxicity against Homo sapiens (human) MCF7 cells assessed as growth inhibition at 10 uM after 48 hr by coulter counter analysis; details: MCF7, 48 h, read-out: GI

| Compound | inhibition of growth at 10 µM (SNB-75) [%] | inhibition of growth at 10 µM (SK-MEL-28) [%] | inhibition of growth at 10 µM (BT-549) [%] | inhibition of growth at 10 µM (SK-OV-3) [%] | inhibition of growth at 10 µM (PC-3) [%] | inhibition of growth at 10 µM (IGROV-1) [%] | inhibition of growth at 10 µM (SN12C) [%] | inhibition of growth at 10 µM (SF-539) [%] | inhibition of growth at 10 µM (TK-10) [%] | inhibition of growth at 10 µM (COLO 205) [%] | inhibition of growth at 10 µM (CAKI-1) [%] | inhibition of growth at 10 µM (HOP-62) [%] | inhibition of growth at 10 µM (SF-268) [%] | inhibition of growth at 10 µM (SK-MEL-5) [%] | inhibition of growth at 10 µM (UO-31) [%] | inhibition of growth at 10 µM (OVCAR-3) [%] | inhibition of growth at 10 µM (UACC-62) [%] | inhibition of growth at 10 µM (A498) [%] | inhibition of growth at 10 µM (DU-145) [%] | inhibition of growth at 10 µM (SW-620) [%] | further results |
| --- | --- | --- | --- | --- | --- | --- | --- | --- | --- | --- | --- | --- | --- | --- | --- | --- | --- | --- | --- | --- | --- |
| O=C(CSc1nc2ccccc2c(=O)n1CCc1ccccc1)c1ccc(F)cc1 | < 10 | < 10 | < 10 | < 10 | 13 | 21 | < 10 | 13 | < 10 | < 10 | 21 | < 10 | 25 | < 10 | 42 | < 10 | < 10 | < 10 | < 10 | < 10 | inhibition of growth at 10 µM (SNB-19): < 10%; inhibition of growth at 10 µM (ACHN): 24%; inhibition of growth at 10 µM (A549): 11%; inhibition of growth at 10 µM (HCT-116): 18%; inhibition of growth at 10 µM (MDA-MB-468): < 10%; inhibition of growth at 10 µM (RXF 393): < 10%; inhibition of growth at 10 µM (MDA-MB-231): 23%; inhibition of growth at 10 µM (NCI-H322M): 13%; inhibition of growth at 10 µM (HCT-15): < 10%; inhibition of growth at 10 µM (SF-295): < 10%; inhibition of growth at 10 µM (MDA-MB-435): < 10%; inhibition of growth at 10 µM (HT-29): < 10%; inhibition of growth at 10 µM (LOX IMVI): < 10%; inhibition of growth at 10 µM (MCF7): < 10% |
| CCn1c(S)nnc1CSc1nc2ccccc2c(=O)n1CCc1ccccc1 | < 10 | < 10 | 28 | < 10 | 17 | < 10 | < 10 | < 10 | < 10 | < 10 | < 10 | 22 | < 10 | 18 | 24 | < 10 | 15 | < 10 | < 10 | < 10 | inhibition of growth at 10 µM (SNB-19): < 10%; inhibition of growth at 10 µM (ACHN): 15%; inhibition of growth at 10 µM (A549): 16%; inhibition of growth at 10 µM (HCT-116): 35%; inhibition of growth at 10 µM (MDA-MB-468): 15%; inhibition of growth at 10 µM (RXF 393): < 10%; inhibition of growth at 10 µM (MDA-MB-231): 18%; inhibition of growth at 10 µM (NCI-H322M): 27%; inhibition of growth at 10 µM (HCT-15): 12%; inhibition of growth at 10 µM (SF-295): < 10%; inhibition of growth at 10 µM (MDA-MB-435): 16%; inhibition of growth at 10 µM (HT-29): < 10%; inhibition of growth at 10 µM (LOX IMVI): 26%; inhibition of growth at 10 µM (MCF7): 16% |
| O=C(CSc1nc2ccccc2c(=O)n1CCc1ccccc1)c1ccccc1 | 18 | < 10 | < 10 | < 10 | 14 | < 10 | < 10 | < 10 | < 10 | < 10 | 22 | < 10 | < 10 | < 10 | 22 | < 10 | 16 | 46 | < 10 | < 10 | inhibition of growth at 10 µM (SNB-19): < 10%; inhibition of growth at 10 µM (ACHN): < 10%; inhibition of growth at 10 µM (A549): 18%; inhibition of growth at 10 µM (HCT-116): 19%; inhibition of growth at 10 µM (MDA-MB-468): 14%; inhibition of growth at 10 µM (RXF 393): < 10%; inhibition of growth at 10 µM (MDA-MB-231): 11%; inhibition of growth at 10 µM (NCI-H322M): < 10%; inhibition of growth at 10 µM (HCT-15): < 10%; inhibition of growth at 10 µM (SF-295): 18%; inhibition of growth at 10 µM (MDA-MB-435): < 10%; inhibition of growth at 10 µM (HT-29): < 10%; inhibition of growth at 10 µM (LOX IMVI): < 10%; inhibition of growth at 10 µM (MCF7): < 10% |
